Where two headings read alike, the source gives them in different places.
Experiments:
Assay in all cases: In vitro MIC, dilution of a liquid medium
Assay type in all cases: cell-based
[1] = tested on: Escherichia Coli Sensitive Tetracycline ATCC 9 637; details: read-out: minimum inhibiting concentration (MIC)
Method: (§1) The method used was a dilution of a liquid medium where a series of tubes received the same quantity of a sterile nutritive media and increasing doses of the test compounds were placed therein. Then each tube was seeded with a bacterial strain and was incubated for 24 or 48 hours at 37° C. in an oven. The increasing inhibition was determined by transillumination to determine the minimum inhibiting concentration (MIC in μg/ml) and the results are reported in the following Tables.

[2] = tested on: Staphylococcus aureus UC 1 128 Penicillin-resistant; details: 37° C., read-out: minimum inhibiting concentration (MIC)
Method: as §1

[3] = tested on: Streptococcus faecalis 5 432; details: Enterococcus faecalis, 5432, 37° C., read-out: minimum inhibiting concentration (MIC)
Method: as §1

[4] = tested on: Escherichia Coli Exp. TO26 B6; details: 37° C., read-out: minimum inhibiting concentration (MIC)
Method: as §1

[5] = tested on: Klebsiella pneumoniae 2 536 Resistant Gentamicine; details: read-out: minimum inhibiting concentration (MIC)
Method: as §1

[6] = tested on: Escherichia Coli Resistant Tetracycline ATCC 11 303; details: 37° C., read-out: minimum inhibiting concentration (MIC)
Method: as §1

[7] = tested on: Serratia Resistant Gentamicine 2 532; details: 37° C., read-out: minimum inhibiting concentration (MIC)
Method: as §1

[8] = tested on: Staphylococcus aureus exp. n° 54 146; details: 37° C., read-out: minimum inhibiting concentration (MIC)
Method: as §1

[9] = tested on: Staphylococcus aureus ATCC 6 538 Penicillin-Sensitive; details: 37° C., read-out: minimum inhibiting concentration (MIC)
Method: as §1

Enterobacter cloacae 681 = details: 37° C., read-out: minimum inhibiting concentration (MIC)
Method: as §1

[10] = tested on: Klebsiella pneumoniae Exp. 52 145; details: 37° C., read-out: minimum inhibiting concentration (MIC)
Method: as §1

[11] = tested on: Streptococcus pyogenes A 561; details: read-out: minimum inhibiting concentration (MIC)
Method: as §1

[12] = tested on: Escherichia Coli Resistant Gentamicine, Tobramycine R 55 123 D; details: read-out: minimum inhibiting concentration (MIC)
Method: as §1

[13] = tested on: Bacillus subtilis ATCC 6 633; details: read-out: minimum inhibiting concentration (MIC)
Method: as §1

[14] = tested on: Proteus mirabilis (indol -) A 235; details: read-out: minimum inhibiting concentration (MIC)
Method: as §1

[15] = tested on: Streptococcus faecalis 99 F 74; details: Enterococcus faecalis, 99F74, 37° C., read-out: minimum inhibiting concentration (MIC)
Method: as §1

Providencia Du 48 = details: 37° C., read-out: minimum inhibiting concentration (MIC)
Method: as §1

[16] = tested on: Salmonella typhimurium 420; details: Salmonella enterica, read-out: minimum inhibiting concentration (MIC)
Method: as §1

[17] = tested on: Proteus vulgaris (indol +) A 232; details: 37° C., read-out: minimum inhibiting concentration (MIC)
Method: as §1

Measured: MIC

CC(=O)OCC1=C(C(=O)O)N2C(=O)C(NC(=O)/C(=N\OCC#N)c3csc(N)n3)C2SC1 (centres unmarked) [Example 8, sodium 7-[2-(2-amino-4-thiazolyl)-2-cyano-methoxyimino-acetamido]-3-acetoxymethyl-ceph-3-eme-4-carboxylate]
0.5 µg/mL: [1]; ATCC9, 24 h | [1]; ATCC9, 48 h | [13]; ATCC6, 24 h | [16]; 24 h | [16]; 48 h
0.05 µg/mL: [6]; ATCC11, 24 H | [6]; ATCC11, 48 H | [10]; EXP.52145, 24 H | [10]; EXP.52145, 48 H | [11]; A561, 24 H, 37° C. | [11]; A561, 48 H, 37° C. | [14]; 24 H, 37° C. | [14]; 48 H, 37° C.
20 µg/mL: [3]; 48 H
2 µg/mL: [2]; UC1, 24 H | [7]; 24 H | [7]; 48 H | [8]; 24 H | [9]; ATCC6, 24 H | [9]; ATCC6, 48 H
1 µg/mL: [5]; 24 H, 37° C. | [5]; 48 H, 37° C. | [13]; ATCC6, 48 H, 37° C.
3 µg/mL: [2]; UC1, 48 H | [3]; 24 H | [8]; 48 H | Enterobacter cloacae 681; 24 H
> 40 µg/mL: [15]; 48 H
5 µg/mL: Enterobacter cloacae 681; 48 H | Providencia Du 48; DU48, 24 H | Providencia Du 48; DU48, 48 H
10 µg/mL: [15]; 24 H
0.2 µg/mL: [4]; 24 H | [4]; 48 H | [12]; 24 h | [12]; 48 h

CC(=O)OCC1=C(C(=O)O)N2C(=O)C(NC(=O)/C(=N\OCC(N)=O)c3csc(N)n3)[C@H]2SC1 (some centres unmarked) [Example 11, sodium 7-[2-(2-amino-4-thiazolyl)-2-(aminocarbonylmethoxyimino)-acetamido]-3-acetoxymethyl-ceph-3-eme-4-carboxylate]
0.1 µg/mL: [4]; 24 H | [4]; 48 H | [11]; A561, 24 h | [11]; A561, 48 h | [12]; 24 h | [12]; 48 h | [14]; 24 h | [14]; 48 h
20 µg/mL: [3]; 48 H | [15]; 24 H
2 µg/mL: [7]; 24 H | [7]; 48 H | [9]; ATCC6, 24 H | Enterobacter cloacae 681; 24 H
0.2 µg/mL: [1]; ATCC9, 24 h | [16]; 24 h | [16]; 48 h
> 40 µg/mL: [15]; 48 H
0.5 µg/mL: [1]; ATCC9, 48 h | [5]; 24 h | [5]; 48 h | [13]; ATCC6, 24 h
0.05 µg/mL: [6]; ATCC11, 24 H | [6]; ATCC11, 48 H | [10]; EXP.52145, 24 H | [10]; EXP.52145, 48 H
40 µg/mL: [17]; 48 H
3 µg/mL: [8]; 24 H | [9]; ATCC6, 48 H
5 µg/mL: [2]; UC1, 24 H | [2]; UC1, 48 H | [17]; 24 H | [3]; 24 H | [8]; 48 H | Providencia Du 48; DU48, 24 H | Providencia Du 48; DU48, 48 H
1 µg/mL: [13]; ATCC6, 48 H, 37° C.
10 µg/mL: Enterobacter cloacae 681; 48 H
